Measurements from patent publication US9617256B2 (priority 2007, dated 2017).
Values after ≈ are worked out from the molar mass of the structure shown. Where two headings read alike, the source gives them in different places.

How the values were obtained:
APAE001 (ATCC27853) = test: MIC broth microdilution, APAE001; assay type: cell-based, P. aeruginosa; settings: Pseudomonas aeruginosa, ATCC27853, read-out: MIC APAE001, APAE001 (ATCC27853)
In short: (§1)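 Growth inhibition was scored by CLSI broth microdilution using cation-adjusted Mueller-Hinton broth and a final inoculum between 3×10^5 and 7×10^5 CFU/mL, incubated 18-24 hours at 35° C.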

[1] = tested on: AABA1060 (clinical isolate of Acinetobacter baumannii); test: MIC broth microdilution, AABA1060; assay type: cell-based; settings: Acinetobacter baumannii, read-out: MIC AABA1060
In short: as §1

[2] = tested on: APAE006 in the presence of 8 micrograms per milliliter of polymyxin B nonapeptide; assay type: cell-based, P. aeruginosa; settings: APAE006 with 8 micrograms per milliliter polymyxin B nonapeptide
In short: (§2)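 Broth microdilution (CLSI); CA-MHB; 3×10^5–7×10^5 CFU/mL final; 2-fold dilutions; 35° C., ambient air, 18-24 h. APAE006 lacks all active efflux pumps.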

AECO001 (ATCC25922) = test: MIC broth microdilution, AECO001; assay type: cell-based, E. coli; settings: for MIC: Escherichia coli
In short: as §1

[3] = tested on: ASAU001 (laboratory strain of S. aureus, ATCC29213); test: MIC broth microdilution, ASAU001; assay type: cell-based; settings: Staphylococcus aureus, ATCC29213, read-out: MIC ASAU001
In short: as §1

[4] = tested on: AECO063 (ATCC25922 bearing an acrAB mutation); test: microbe, parasite or virus in culture; assay type: cell-based, E. coli; settings: Escherichia coli, ATCC25922, read-out: MIC AECO063
In short: as §1

[5] = tested on: APAE006 (strain of P. aeruginosa in which all efflux pumps are inactivated); test: microbe, parasite or virus in culture; assay type: cell-based; settings: Pseudomonas aeruginosa, read-out: MIC APAE006, APAE006, all efflux pumps inactivated
In short: as §2

[6] = ATCC25922, read-out: MIC AECO001
[7] = ATCC25922, read-out: MIC AECO001 HSA AGP

Compound: CC(C)/C=C/C#Cc1ccc(C(=O)N[C@H](C(=O)NO)[C@@H](C)N)cc1 [Example 107-5]
- MIC (APAE001 (ATCC27853)): 2 to 16 µg/mL (≈ 6.07 to 48.6 µM)
- MIC [1]: < 2 µg/mL
- MIC APAE006 + PMBN [2]: A (MIC's of 2.0 μg/mL or less = A)
- MIC (AECO001 (ATCC25922); [6]): < 2 µg/mL
- MIC (AECO001 (ATCC25922); [7]): 2 to 16 µg/mL (≈ 6.07 to 48.6 µM)
- MIC [3]: 2 to 16 µg/mL (≈ 6.07 to 48.6 µM)
- MIC [4]: < 2 µg/mL
- MIC [5]: < 2 µg/mL

Compound: C[C@@H](N)[C@H](NC(=O)c1ccc(C#CC2CC2)cc1)C(=O)NO [Example 137-21]
- MIC (APAE001 (ATCC27853)): 2 to 16 µg/mL (≈ 6.64 to 53.1 µM)
- MIC [1]: 2 to 16 µg/mL (≈ 6.64 to 53.1 µM)
- MIC APAE006 + PMBN [2]: A (MIC's of 2.0 μg/mL or less = A)
- MIC (AECO001 (ATCC25922); [6]): 16 to 64 µg/mL (≈ 53.1 to 212 µM)
- MIC (AECO001 (ATCC25922); [7]): 16 to 64 µg/mL (≈ 53.1 to 212 µM)
- MIC [3]: 16 to 64 µg/mL (≈ 53.1 to 212 µM)
- MIC [4]: 16 to 64 µg/mL (≈ 53.1 to 212 µM)
- MIC [5]: < 2 µg/mL

Compound: CC(C)(N)[C@H](NC(=O)c1ccc(C#CC#CC2CCC2)cc1)C(=O)NO [Example 91-16]
- MIC (APAE001 (ATCC27853)): < 2 µg/mL
- MIC [1]: < 2 µg/mL
- MIC APAE006 + PMBN [2]: A (MIC's of 2.0 μg/mL or less = A)
- MIC (AECO001 (ATCC25922); [6]): < 2 µg/mL
- MIC (AECO001 (ATCC25922); [7]): < 2 µg/mL
- Ratio of MICs on AECO001 [Cpd (A = —CHCH3NH2)/Cpd (A = —C(CH3)2NH2)] (AECO001 (ATCC25922); MIC of paired compound with A = —CHCH3NH2 divided by MIC of compound with A = —C(CH3)2NH2, n=2 data, pairs identical except for the A moiety): 2.6
- MIC [3]: 2 to 16 µg/mL (≈ 5.66 to 45.3 µM)
- MIC [4]: < 2 µg/mL
- MIC [5]: < 2 µg/mL

Compound: Cn1cnc(C#CC#Cc2ccc(C(=O)N[C@H](C(=O)NO)C(C)(C)N)cc2)c1 [Example 89-5]
- MIC (APAE001 (ATCC27853)): < 2 µg/mL
- MIC [1]: 2 to 16 µg/mL (≈ 5.27 to 42.2 µM)
- MIC APAE006 + PMBN [2]: A (MIC's of 2.0 μg/mL or less = A)
- MIC (AECO001 (ATCC25922); [6]): 2 to 16 µg/mL (≈ 5.27 to 42.2 µM)
- MIC (AECO001 (ATCC25922); [7]): 2 to 16 µg/mL (≈ 5.27 to 42.2 µM)
- MIC [3]: 16 to 64 µg/mL (≈ 42.2 to 169 µM)
- MIC [4]: < 2 µg/mL
- MIC [5]: < 2 µg/mL

Compound: CC(C)(C)CNCc1ccc(C#Cc2ccc(C(=O)N[C@H](C(=O)NO)C(C)(C)N)cc2)cc1 [Example 122-2]
- MIC (APAE001 (ATCC27853)): < 2 µg/mL
- MIC [1]: 2 to 16 µg/mL (≈ 4.44 to 35.5 µM)
- MIC APAE006 + PMBN [2]: A (MIC's of 2.0 μg/mL or less = A)
- MIC (AECO001 (ATCC25922); [6]): < 2 µg/mL
- MIC (AECO001 (ATCC25922); [7]): 2 to 16 µg/mL (≈ 4.44 to 35.5 µM)
- MIC [3]: 16 to 64 µg/mL (≈ 35.5 to 142 µM)
- MIC [4]: < 2 µg/mL
- MIC [5]: < 2 µg/mL

Compound: COCCNCc1ccc(C#Cc2ccc(C(=O)N[C@H](C(=O)NO)[C@@H](C)N)cc2)cc1 [Example 122-1, N-((1S,2R)-2-Amino-1-hydroxycarbamoyl-propyl)-4-{4-[(2-methoxy-ethylamino)-methyl]-phenylethynyl}-benzamide]
- MIC (APAE001 (ATCC27853)): 2 to 16 µg/mL (≈ 4.71 to 37.7 µM)
- MIC [1]: 16 to 64 µg/mL (≈ 37.7 to 151 µM)
- MIC APAE006 + PMBN [2]: A (MIC's of 2.0 μg/mL or less = A)
- MIC (AECO001 (ATCC25922); [6]): 2 to 16 µg/mL (≈ 4.71 to 37.7 µM)
- MIC (AECO001 (ATCC25922); [7]): 2 to 16 µg/mL (≈ 4.71 to 37.7 µM)
- MIC [3]: 16 to 64 µg/mL (≈ 37.7 to 151 µM)
- MIC [4]: < 2 µg/mL
- MIC [5]: < 2 µg/mL

Compound: CCCC#CC#Cc1ccc(C(=O)N[C@H](C(=O)NO)[C@@H](C)N)cc1 [Example 91-8]
- MIC (APAE001 (ATCC27853)): < 2 µg/mL
- MIC [1]: 2 to 16 µg/mL (≈ 6.11 to 48.9 µM)
- MIC APAE006 + PMBN [2]: A (MIC's of 2.0 μg/mL or less = A)
- MIC (AECO001 (ATCC25922); [6]): < 2 µg/mL
- MIC (AECO001 (ATCC25922); [7]): 2 to 16 µg/mL (≈ 6.11 to 48.9 µM)
- MIC [3]: 2 to 16 µg/mL (≈ 6.11 to 48.9 µM)
- MIC [4]: < 2 µg/mL
- MIC [5]: < 2 µg/mL

Compound: CC(C)OCc1ccc(C#Cc2ccc(C(=O)N[C@H](C(=O)NO)[C@@H](C)N)cc2)cc1 [Example 124-2]
- MIC (APAE001 (ATCC27853)): 2 to 16 µg/mL (≈ 4.88 to 39.1 µM)
- MIC [1]: 2 to 16 µg/mL (≈ 4.88 to 39.1 µM)
- MIC APAE006 + PMBN [2]: A (MIC's of 2.0 μg/mL or less = A)
- MIC (AECO001 (ATCC25922); [6]): < 2 µg/mL
- MIC (AECO001 (ATCC25922); [7]): 2 to 16 µg/mL (≈ 4.88 to 39.1 µM)
- MIC [3]: 16 to 64 µg/mL (≈ 39.1 to 156 µM)
- MIC [4]: < 2 µg/mL
- MIC [5]: < 2 µg/mL

Compound: C[C@@H](N)[C@H](NC(=O)c1ccc(C#C/C=C/c2ccc(F)cc2)cc1)C(=O)NO [Example 106-6]
- MIC (APAE001 (ATCC27853)): 2 to 16 µg/mL (≈ 5.24 to 41.9 µM)
- MIC [1]: 2 to 16 µg/mL (≈ 5.24 to 41.9 µM)
- MIC APAE006 + PMBN [2]: A (MIC's of 2.0 μg/mL or less = A)
- MIC (AECO001 (ATCC25922); [6]): < 2 µg/mL
- MIC (AECO001 (ATCC25922); [7]): 16 to 64 µg/mL (≈ 41.9 to 168 µM)
- MIC [3]: 16 to 64 µg/mL (≈ 41.9 to 168 µM)
- MIC [4]: < 2 µg/mL
- MIC [5]: < 2 µg/mL

Compound: CC(C)(N)C(NC(=O)c1ccc(C#CC#CC2CC2)cc1)C(=O)NO (stereo not drawn) [Example 91-10]
- MIC (APAE001 (ATCC27853)): < 2 µg/mL
- MIC [1]: < 2 µg/mL
- MIC APAE006 + PMBN [2]: A (MIC's of 2.0 μg/mL or less = A)
- MIC (AECO001 (ATCC25922); [6]): < 2 µg/mL
- MIC (AECO001 (ATCC25922); [7]): < 2 µg/mL
- MIC [3]: 16 to 64 µg/mL (≈ 47.1 to 189 µM)
- MIC [4]: < 2 µg/mL
- MIC [5]: < 2 µg/mL
